{"source": "ChEMBL document CHEMBL1629662", "about": "“Antimicrobial activity of prulifloxacin tested against a worldwide collection of gastroenteritis-producing pathogens, including those causing traveler's diarrhea” (2009)", "key": {"Vibrio parahaemolyticus": {"tested_on": "Vibrio parahaemolyticus", "assay": "Antibacterial activity against Vibrio parahaemolyticus by broth microdilution methods in presence of sulfamethoxazole"}, "Vibrio alginolyticus": {"tested_on": "Vibrio alginolyticus", "assay": "Antibacterial activity against Vibrio alginolyticus by broth microdilution methods in presence of sulfamethoxazole"}, "Vibrio fluvialis": {"tested_on": "Vibrio fluvialis", "assay": "Antibacterial activity against Vibrio fluvialis by broth microdilution method in presence of sulfamethoxazole"}, "Vibrio vulnificus": {"tested_on": "Vibrio vulnificus", "assay": "Antibacterial activity against Vibrio vulnificus by broth microdilution method in presence of sulfamethoxazole"}, "Vibrio sp.": {"tested_on": "Vibrio sp.", "assay": "Antibacterial activity against Vibrio sp. by broth microdilution method in presence of sulfamethoxazole"}, "Campylobacter jejuni": {"tested_on": "Campylobacter jejuni", "assay": "Antibacterial activity against Campylobacter jejuni by broth microdilution method in presence of sulfamethoxazole"}, "Campylobacter coli": {"tested_on": "Campylobacter coli", "assay": "Antibacterial activity against Campylobacter coli by broth microdilution method in presence of sulfamethoxazole"}, "Escherichia coli": {"tested_on": "Escherichia coli", "assay": "Antibacterial activity against Escherichia coli by broth microdilution methods in presence of sulfamethoxazolee"}, "Salmonella typhimurium": {"tested_on": "Salmonella typhimurium", "assay": "Antibacterial activity against Salmonella enterica serovar Typhimurium by broth microdilution method in presence of sulfamethoxazolee"}, "Salmonella enteritidis": {"tested_on": "Salmonella enteritidis", "assay": "Antibacterial activity against Salmonella enterica serovar Enteritidis by broth microdilution method in presence of sulfamethoxazolee"}, "Salmonella typhi": {"tested_on": "Salmonella typhi", "assay": "Antibacterial activity against Salmonella enterica serovar Typhi by broth microdilution method in presence of sulfamethoxazolee"}, "Salmonella paratyphi": {"tested_on": "Salmonella paratyphi", "assay": "Antibacterial activity against Salmonella enterica serovar Paratyphi by broth microdilution method in presence of sulfamethoxazolee"}, "[1]": {"assay": "Antibacterial activity against Salmonella enterica serovar Newport by broth microdilution method in presence of sulfamethoxazole"}, "[2]": {"assay": "Antibacterial activity against Salmonella enterica serovar Virchow by broth microdilution method in presence of sulfamethoxazole"}, "[3]": {"assay": "Antibacterial activity against Salmonella enterica serovar Heidelberg by broth microdilution method in presence of sulfamethoxazole"}, "Shigella sonnei": {"tested_on": "Shigella sonnei", "assay": "Antibacterial activity against Shigella sonnei by broth microdilution method in presence of sulfamethoxazole"}, "Shigella flexneri": {"tested_on": "Shigella flexneri", "assay": "Antibacterial activity against Shigella flexneri by broth microdilution method in presence of sulfamethoxazole"}, "Shigella boydii": {"tested_on": "Shigella boydii", "assay": "Antibacterial activity against Shigella boydii by broth microdilution methods in presence of sulfamethoxazole"}, "Shigella dysenteriae": {"tested_on": "Shigella dysenteriae", "assay": "Antibacterial activity against Shigella dysenteriae by broth microdilution methods in presence of sulfamethoxazole"}, "Yersinia enterocolitica": {"tested_on": "Yersinia enterocolitica", "assay": "Antibacterial activity against Yersinia enterocolitica by broth microdilution methods in presence of sulfamethoxazole"}, "[4]": {"tested_on": "Yersinia pseudotuberculosis", "assay": "Antibacterial activity against Yersinia pseudotuberculosis by broth microdilution methods in presence of sulfamethoxazole"}, "Aeromonas hydrophila": {"tested_on": "Aeromonas hydrophila", "assay": "Antibacterial activity against Aeromonas hydrophila by broth microdilution methods in presence of sulfamethoxazole"}, "Aeromonas caviae": {"tested_on": "Aeromonas caviae", "assay": "Antibacterial activity against Aeromonas caviae by broth microdilution methods in presence of sulfamethoxazole"}, "Aeromonas sobria": {"tested_on": "Aeromonas sobria", "assay": "Antibacterial activity against Aeromonas sobria by broth microdilution methods in presence of sulfamethoxazole"}, "Aeromonas veronii": {"tested_on": "Aeromonas veronii", "assay": "Antibacterial activity against Aeromonas veronii by broth microdilution methods in presence of sulfamethoxazole"}, "Plesiomonas shigelloides": {"tested_on": "Plesiomonas shigelloides", "assay": "Antibacterial activity against Plesiomonas shigelloides by broth microdilution method in presence of sulfamethoxazole"}, "Vibrio cholerae": {"tested_on": "Vibrio cholerae", "assay": "microbe, parasite or virus in culture"}}, "data": [{"compound": "COc1cc(Cc2cnc(N)nc2N)cc(OC)c1OC", "note": "[TRIMETHOPRIM]", "values": [{"measurement": "MIC50", "setting": "Vibrio parahaemolyticus", "value": "≤ 0.5", "unit": "µg/mL"}, {"measurement": "MIC90", "setting": "Vibrio parahaemolyticus", "value": "≤ 0.5", "unit": "µg/mL"}, {"measurement": "MIC50", "setting": "Vibrio alginolyticus", "value": "≤ 0.5", "unit": "µg/mL"}, {"measurement": "MIC90", "setting": "Vibrio alginolyticus", "value": "≤ 0.5", "unit": "µg/mL"}, {"measurement": "MIC50", "setting": "Vibrio fluvialis", "value": "≤ 0.5", "unit": "µg/mL"}, {"measurement": "MIC90", "setting": "Vibrio fluvialis", "value": "≤ 0.5", "unit": "µg/mL"}, {"measurement": "MIC50", "setting": "Vibrio vulnificus", "value": "≤ 0.5", "unit": "µg/mL"}, {"measurement": "MIC90", "setting": "Vibrio vulnificus", "value": "≤ 0.5", "unit": "µg/mL"}, {"measurement": "MIC50", "setting": "Vibrio sp.", "value": "≤ 0.5", "unit": "µg/mL"}, {"measurement": "MIC90", "setting": "Vibrio sp.", "value": "≤ 0.5", "unit": "µg/mL"}, {"measurement": "MIC50", "setting": "Campylobacter jejuni", "value": 2, "unit": "µg/mL"}, {"measurement": "MIC90", "setting": "Campylobacter jejuni", "value": 8, "unit": "µg/mL"}, {"measurement": "MIC50", "setting": "Campylobacter coli", "value": 2, "unit": "µg/mL"}, {"measurement": "MIC90", "setting": "Campylobacter coli", "value": 8, "unit": "µg/mL"}, {"measurement": "MIC50", "setting": "Escherichia coli", "value": "≤ 0.5", "unit": "µg/mL"}, {"measurement": "MIC90", "setting": "Escherichia coli", "value": "> 64", "unit": "µg/mL"}, {"measurement": "MIC50", "setting": "Salmonella typhimurium", "value": "≤ 0.5", "unit": "µg/mL"}, {"measurement": "MIC90", "setting": "Salmonella typhimurium", "value": "≤ 0.5", "unit": "µg/mL"}, {"measurement": "MIC50", "setting": "Salmonella enteritidis", "value": "≤ 0.5", "unit": "µg/mL"}, {"measurement": "MIC90", "setting": "Salmonella enteritidis", "value": "≤ 0.5", "unit": "µg/mL"}, {"measurement": "MIC50", "setting": "Salmonella typhi", "value": "≤ 0.5", "unit": "µg/mL"}, {"measurement": "MIC90", "setting": "Salmonella typhi", "value": "≤ 0.5", "unit": "µg/mL"}, {"measurement": "MIC50", "setting": "Salmonella paratyphi", "value": "≤ 0.5", "unit": "µg/mL"}, {"measurement": "MIC90", "setting": "Salmonella paratyphi", "value": "≤ 0.5", "unit": "µg/mL"}, {"measurement": "MIC50", "setting": "[1]", "value": "≤ 0.5", "unit": "µg/mL"}, {"measurement": "MIC90", "setting": "[1]", "value": "≤ 0.5", "unit": "µg/mL"}, {"measurement": "MIC50", "setting": "[2]", "value": "≤ 0.5", "unit": "µg/mL"}, {"measurement": "MIC90", "setting": "[2]", "value": "≤ 0.5", "unit": "µg/mL"}, {"measurement": "MIC50", "setting": "[3]", "value": "≤ 0.5", "unit": "µg/mL"}, {"measurement": "MIC90", "setting": "[3]", "value": "≤ 0.5", "unit": "µg/mL"}, {"measurement": "MIC50", "setting": "Shigella sonnei", "value": "> 64", "unit": "µg/mL"}, {"measurement": "MIC90", "setting": "Shigella sonnei", "value": "> 64", "unit": "µg/mL"}, {"measurement": "MIC50", "setting": "Shigella flexneri", "value": "> 64", "unit": "µg/mL"}, {"measurement": "MIC90", "setting": "Shigella flexneri", "value": "> 64", "unit": "µg/mL"}, {"measurement": "MIC50", "setting": "Shigella boydii", "value": "> 64", "unit": "µg/mL"}, {"measurement": "MIC90", "setting": "Shigella boydii", "value": "> 64", "unit": "µg/mL"}, {"measurement": "MIC50", "setting": "Shigella dysenteriae", "value": "> 64", "unit": "µg/mL"}, {"measurement": "MIC90", "setting": "Shigella dysenteriae", "value": "> 64", "unit": "µg/mL"}, {"measurement": "MIC50", "setting": "Yersinia enterocolitica", "value": "≤ 0.5", "unit": "µg/mL"}, {"measurement": "MIC50", "setting": "[4]", "value": "≤ 0.5", "unit": "µg/mL"}, {"measurement": "MIC50", "setting": "Aeromonas hydrophila", "value": "≤ 0.5", "unit": "µg/mL"}, {"measurement": "MIC90", "setting": "Aeromonas hydrophila", "value": 8, "unit": "µg/mL"}, {"measurement": "MIC50", "setting": "Aeromonas caviae", "value": "≤ 0.5", "unit": "µg/mL"}, {"measurement": "MIC90", "setting": "Aeromonas caviae", "value": 8, "unit": "µg/mL"}, {"measurement": "MIC50", "setting": "Aeromonas sobria", "value": "≤ 0.5", "unit": "µg/mL"}, {"measurement": "MIC90", "setting": "Aeromonas sobria", "value": 8, "unit": "µg/mL"}, {"measurement": "MIC50", "setting": "Aeromonas veronii", "value": "≤ 0.5", "unit": "µg/mL"}, {"measurement": "MIC90", "setting": "Aeromonas veronii", "value": 8, "unit": "µg/mL"}, {"measurement": "MIC", "setting": "Plesiomonas shigelloides", "value": "≤ 0.5", "unit": "µg/mL"}, {"measurement": "MIC50", "setting": "Plesiomonas shigelloides", "value": "≤ 0.5", "unit": "µg/mL"}, {"measurement": "MIC50", "setting": "Vibrio cholerae", "value": "≤ 0.5", "unit": "µg/mL"}, {"measurement": "MIC90", "setting": "Vibrio cholerae", "value": "≤ 0.5", "unit": "µg/mL"}]}]}
